According to ChEMBL document CHEMBL2429740, “The synthesis and SAR study of phenylalanine-derived (Z)-5-arylmethylidene rhodanines as anti-methicillin-resistant Staphylococcus aureus (MRSA) compounds” (2013):
In brackets after ≈: the same amount, converted by molar mass.

Experiments:
Assay type in all cases: functional
Staphylococcus aureus [1] = assay: Antibacterial activity against methicillin-resistant Staphylococcus aureus CA ATCC BAA-1680 by microdilution technique
Staphylococcus aureus [2] = assay: Antibacterial activity against methicillin-resistant Staphylococcus aureus ATCC 700698 by microdilution technique
Staphylococcus aureus [3] = assay: Antibacterial activity against methicillin-resistant Staphylococcus aureus ATCC BAA-39 by microdilution technique
Staphylococcus aureus [4] = assay: Antibacterial activity against methicillin-resistant Staphylococcus aureus ATCC 700787 by microdilution technique
Staphylococcus aureus [5] = assay: Antibacterial activity against methicillin-resistant Staphylococcus aureus ATCC 34404 by microdilution technique
Staphylococcus aureus [6] = assay: Antibacterial activity against methicillin-resistant Staphylococcus aureus ST239 HS770 by microdilution technique

SMILES	MIC (Staphylococcus aureus [1])	MIC (Staphylococcus aureus [2])	MIC (Staphylococcus aureus [3])	MIC (Staphylococcus aureus [4])	MIC (Staphylococcus aureus [5])	MIC (Staphylococcus aureus [6])
O=C(O)[C@H](Cc1ccccc1)N1C(=O)/C(=C/c2ccccc2Oc2ccccc2)SC1=S	1.95 µg/mL (≈ 4.22 µM)	1.95 µg/mL (≈ 4.22 µM)	3.9 µg/mL (≈ 8.45 µM)	1.95 µg/mL (≈ 4.22 µM)	1.95 µg/mL (≈ 4.22 µM)	
O=C(O)[C@H](Cc1ccccc1)N1C(=O)/C(=C/c2ccc(Oc3ccccc3)cc2)SC1=S	1.95 µg/mL (≈ 4.22 µM)	1.95 µg/mL (≈ 4.22 µM)	3.9 µg/mL (≈ 8.45 µM)	7.8 µg/mL (≈ 16.9 µM)	1.95 µg/mL (≈ 4.22 µM)	7.8 µg/mL (≈ 16.9 µM)
O=C(O)[C@H](Cc1ccccc1)N1C(=O)/C(=C/c2cccc(Oc3cccc(Cl)c3)c2)SC1=S	15.6 µg/mL (≈ 31.5 µM)	15.6 µg/mL (≈ 31.5 µM)	15.6 µg/mL (≈ 31.5 µM)	15.6 µg/mL (≈ 31.5 µM)	15.6 µg/mL (≈ 31.5 µM)	
O=C(O)[C@H](Cc1ccccc1)N1C(=O)/C(=C/c2cccc(Oc3cccc(F)c3)c2)SC1=S	31.2 µg/mL (≈ 65.2 µM)	15.6 µg/mL (≈ 32.5 µM)	15.6 µg/mL (≈ 32.5 µM)	31.2 µg/mL (≈ 65.2 µM)	15.6 µg/mL (≈ 32.5 µM)	
COc1ccc(Oc2cccc(/C=C3\SC(=S)N([C@@H](Cc4ccccc4)C(=O)O)C3=O)c2)cc1	15.6 µg/mL (≈ 31.7 µM)	7.8 µg/mL (≈ 15.9 µM)	7.8 µg/mL (≈ 15.9 µM)	7.8 µg/mL (≈ 15.9 µM)	7.8 µg/mL (≈ 15.9 µM)	
O=C(O)[C@H](Cc1ccccc1)N1C(=O)/C(=C/c2cccc(Oc3ccc(Cl)cc3)c2)SC1=S	15.6 µg/mL (≈ 31.5 µM)	7.8 µg/mL (≈ 15.7 µM)	7.8 µg/mL (≈ 15.7 µM)	15.6 µg/mL (≈ 31.5 µM)	7.8 µg/mL (≈ 15.7 µM)	
O=C(O)[C@H](Cc1ccccc1)N1C(=O)/C(=C/c2cccc(Oc3ccc(F)cc3)c2)SC1=S	7.8 µg/mL (≈ 16.3 µM)	7.8 µg/mL (≈ 16.3 µM)	7.8 µg/mL (≈ 16.3 µM)	7.8 µg/mL (≈ 16.3 µM)	7.8 µg/mL (≈ 16.3 µM)	
O=C(O)[C@H](Cc1ccccc1)N1C(=O)/C(=C/c2cccc(Cc3ccccc3)c2)SC1=S	1.95 µg/mL (≈ 4.24 µM)	3.9 µg/mL (≈ 8.49 µM)	1.95 µg/mL (≈ 4.24 µM)	3.9 µg/mL (≈ 8.49 µM)	1.95 µg/mL (≈ 4.24 µM)	
O=C(c1ccccc1)c1cccc(/C=C2\SC(=S)N([C@@H](Cc3ccccc3)C(=O)O)C2=O)c1	3.9 µg/mL (≈ 8.24 µM)	7.8 µg/mL (≈ 16.5 µM)	3.9 µg/mL (≈ 8.24 µM)	7.8 µg/mL (≈ 16.5 µM)	3.9 µg/mL (≈ 8.24 µM)	
O=C(O)[C@H](Cc1ccccc1)N1C(=O)/C(=C/c2cccc(OCc3ccccc3)c2)SC1=S	1.95 µg/mL (≈ 4.1 µM)	3.9 µg/mL (≈ 8.2 µM)	1.95 µg/mL (≈ 4.1 µM)	3.9 µg/mL (≈ 8.2 µM)	1.95 µg/mL (≈ 4.1 µM)	1.95 µg/mL (≈ 4.1 µM)
O=C(O)[C@@H](Cc1ccccc1)N1C(=O)/C(=C/c2cccc(Oc3ccccc3)c2)SC1=S	1.95 µg/mL (≈ 4.22 µM)	1.95 µg/mL (≈ 4.22 µM)	3.9 µg/mL (≈ 8.45 µM)	3.9 µg/mL (≈ 8.45 µM)	3.9 µg/mL (≈ 8.45 µM)	3.9 µg/mL (≈ 8.45 µM)
O=C(O)[C@@H](Cc1ccccc1)N1C(=O)/C(=C/c2cccc(Oc3ccc(Cl)cc3)c2)SC1=S	1.95 µg/mL (≈ 3.93 µM)	3.9 µg/mL (≈ 7.86 µM)	1.95 µg/mL (≈ 3.93 µM)	3.9 µg/mL (≈ 7.86 µM)	1.95 µg/mL (≈ 3.93 µM)	1.95 µg/mL (≈ 3.93 µM)
O=C(O)[C@@H](Cc1ccccc1)N1C(=O)/C(=C/c2cccc(Oc3ccc(F)cc3)c2)SC1=S	1.95 µg/mL (≈ 4.07 µM)	1.95 µg/mL (≈ 4.07 µM)	1.95 µg/mL (≈ 4.07 µM)	1.95 µg/mL (≈ 4.07 µM)	1.95 µg/mL (≈ 4.07 µM)	1.95 µg/mL (≈ 4.07 µM)
O=C(O)[C@@H](Cc1ccccc1)N1C(=O)/C(=C/c2cccc(Oc3ccc(Cl)c(Cl)c3)c2)SC1=S	3.9 µg/mL (≈ 7.35 µM)	1.95 µg/mL (≈ 3.68 µM)	1.95 µg/mL (≈ 3.68 µM)	15.6 µg/mL (≈ 29.4 µM)	1.95 µg/mL (≈ 3.68 µM)	3.9 µg/mL (≈ 7.35 µM)
O=C(O)[C@H](Cc1ccccc1)N1C(=O)/C(=C/c2cccc(Cc3ccc(Cl)c(Cl)c3)c2)SC1=S	31.2 µg/mL (≈ 59.1 µM)	31.2 µg/mL (≈ 59.1 µM)	15.6 µg/mL (≈ 29.5 µM)	62.5 µg/mL (≈ 118 µM)	31.2 µg/mL (≈ 59.1 µM)	15.6 µg/mL (≈ 29.5 µM)
O=C(O)[C@H](Cc1ccccc1)N1C(=O)/C(=C/c2ccccc2-c2ccccc2)SC1=S	7.8 µg/mL (≈ 17.5 µM)	15.6 µg/mL (≈ 35 µM)	7.8 µg/mL (≈ 17.5 µM)	15.6 µg/mL (≈ 35 µM)	7.8 µg/mL (≈ 17.5 µM)	7.8 µg/mL (≈ 17.5 µM)
O=C(O)[C@H](Cc1ccccc1)N1C(=O)/C(=C/c2cccc(-c3ccc(Cl)c(Cl)c3)c2)SC1=S	7.8 µg/mL (≈ 15.2 µM)	7.8 µg/mL (≈ 15.2 µM)	3.9 µg/mL (≈ 7.58 µM)	3.9 µg/mL (≈ 7.58 µM)	3.9 µg/mL (≈ 7.58 µM)	1.95 µg/mL (≈ 3.79 µM)
O=C(O)[C@H](Cc1ccccc1)N1C(=O)/C(=C/c2cccc(-c3nccs3)c2)SC1=S	31.2 µg/mL (≈ 69 µM)	31.2 µg/mL (≈ 69 µM)	7.8 µg/mL (≈ 17.2 µM)	31.2 µg/mL (≈ 69 µM)	15.6 µg/mL (≈ 34.5 µM)	3.9 µg/mL (≈ 8.62 µM)
O=C(O)[C@H](Cc1ccccc1)N1C(=O)/C(=C/c2cccc(-c3cncnc3)c2)SC1=S	125 µg/mL (≈ 279 µM)	125 µg/mL (≈ 279 µM)	125 µg/mL (≈ 279 µM)	125 µg/mL (≈ 279 µM)	125 µg/mL (≈ 279 µM)	125 µg/mL (≈ 279 µM)
O=C(O)[C@H](Cc1ccccc1)N1C(=O)/C(=C/c2ccccc2OCc2ccccc2)SC1=S	7.8 µg/mL (≈ 16.4 µM)	7.8 µg/mL (≈ 16.4 µM)	15.6 µg/mL (≈ 32.8 µM)	15.6 µg/mL (≈ 32.8 µM)	7.8 µg/mL (≈ 16.4 µM)	7.8 µg/mL (≈ 16.4 µM)
O=C(O)[C@H](Cc1ccccc1)N1C(=O)/C(=C/c2ccccc2OCCc2ccccc2)SC1=S	7.8 µg/mL (≈ 15.9 µM)	7.8 µg/mL (≈ 15.9 µM)	15.6 µg/mL (≈ 31.9 µM)	15.6 µg/mL (≈ 31.9 µM)	15.6 µg/mL (≈ 31.9 µM)	15.6 µg/mL (≈ 31.9 µM)
O=C(O)[C@H](Cc1ccccc1)N1C(=O)/C(=C/c2cccc(OCCc3ccccc3)c2)SC1=S	15.6 µg/mL (≈ 31.9 µM)	31.2 µg/mL (≈ 63.8 µM)	31.2 µg/mL (≈ 63.8 µM)	31.2 µg/mL (≈ 63.8 µM)	31.2 µg/mL (≈ 63.8 µM)	15.6 µg/mL (≈ 31.9 µM)
O=C(O)[C@H](Cc1ccccc1)N1C(=O)/C(=C/c2ccccc2Oc2ccc(Cl)c(Cl)c2)SC1=S	3.9 µg/mL (≈ 7.35 µM)	7.8 µg/mL (≈ 14.7 µM)	3.9 µg/mL (≈ 7.35 µM)	3.9 µg/mL (≈ 7.35 µM)	3.9 µg/mL (≈ 7.35 µM)	1.95 µg/mL (≈ 3.68 µM)
O=C(O)[C@H](Cc1ccccc1)N1C(=O)/C(=C/c2ccccc2Cc2ccccc2)SC1=S	3.9 µg/mL (≈ 8.49 µM)	7.8 µg/mL (≈ 17 µM)	7.8 µg/mL (≈ 17 µM)	7.8 µg/mL (≈ 17 µM)	15.6 µg/mL (≈ 33.9 µM)	15.6 µg/mL (≈ 33.9 µM)
O=C(O)[C@H](Cc1ccccc1)N1C(=O)/C(=C/c2cccc(OCC3CC3)c2)SC1=S	15.6 µg/mL (≈ 35.5 µM)	15.6 µg/mL (≈ 35.5 µM)	15.6 µg/mL (≈ 35.5 µM)	15.6 µg/mL (≈ 35.5 µM)	15.6 µg/mL (≈ 35.5 µM)	15.6 µg/mL (≈ 35.5 µM)
O=C(O)c1cn(C2CC2)c2cc(N3CCNCC3)c(F)cc2c1=O [CIPROFLOXACIN]				62.5 µg/mL (≈ 189 µM)	≤ 0.48 µg/mL	62.5 µg/mL (≈ 189 µM)
CC1(C)S[C@@H]2[C@H](NC(=O)Cc3ccccc3)C(=O)N2[C@H]1C(=O)O [PENICILLIN G]	125 µg/mL (≈ 374 µM)	15.6 µg/mL (≈ 46.7 µM)	62.5 µg/mL (≈ 187 µM)	62.5 µg/mL (≈ 187 µM)	31.2 µg/mL (≈ 93.5 µM)	250 µg/mL (≈ 748 µM)
CN[C@H](CC(C)C)C(=O)N[C@H]1C(=O)N[C@@H](CC(N)=O)C(=O)N[C@H]2C(=O)N[C@H]3C(=O)N[C@H](C(=O)N[C@H](C(=O)O)c4cc(O)cc(O)c4-c4cc3ccc4O)[C@H](O)c3ccc(c(Cl)c3)Oc3cc2cc(c3O[C@@H]2O[C@H](CO)[C@@H](O)[C@H](O)[C@H]2O[C@H]2C[C@](C)(N)[C@H](O)[C@H](C)O2)Oc2ccc(cc2Cl)[C@H]1O [VANCOMYCIN]	≤ 0.48 µg/mL	≤ 0.48 µg/mL	≤ 0.48 µg/mL	1.95 µg/mL (≈ 1.35 µM)	≤ 0.48 µg/mL	≤ 0.48 µg/mL
